# Residues, ends and D or L forms follow the SMILES beside them. *: point of attachment. Pyropheophorbide(a) = C=Cc1c(C)c2cc3nc(c4c5[nH]c(cc6nc(cc1[nH]2)C(C)=C6CC)c(C)c5C(=O)C4)[C@@H](CCC(=O)*)[C@@H]3C; Hexanoyl(6-maleimido) = O=C1C=CC(=O)N1CCCCCC(=O)*
# Experiments:
# [1] = Estimation of PS or peptide loading / molar extinction coefficient; assay type: physicochemical; conditions: water, 381 nm, from calibration curve
# Procedure: The loading of the PS onto the AuNRs was estimated relying on the molar extinction coefficient (ε) calculated for the MI-K(Pyro)DKPPR-OH conjugate. A calibration curve was developed based on the different concentrations of the conjugate, in water, that correspond to different optical densities (OD). The ε was determined using Beer Lambert’s Law at 381 nm, which constitutes the wavelength of the Soret band of Pyro in water. (3) A = εLC where A, ε, L and C stand for the absorption (OD), molar absorptivity (extinction, L·mol^−1·cm^−1), length (cm) and concentration (mol·L^−1).
# The concentration of Pyro in AuNRs@PEG-MI-K(Pyro)DKPPR-OH was calculated for a mass concentration of 1 mg·mL^−1. Moreover, the concentration of the peptide was also determined, as only 1 peptide unit is conjugated to 1 PS molecules. On this basis, the amount of peptide was also estimated to 1 mg·mL^−1 of the functionalized AuNRs.
# [2] = in methanol; ref [16]; cited from earlier work
# Procedure: Fluorescence quantum yields (Φf) were determined using a tetraphenyl porphyrin (TPP) solution as the fluorescence standard (Φf = 0.11 in toluene, taking into account solvent refractive index and absorption efficiencies. For the direct determination of ^1O2 quantum yield (ΦΔ), excitation was performed with a Xe-arc, the light was separated in a SPEX 1680, 0.22 µm double monochromator. Detection at 1270 nm was carried out through a PTI S/N 1565 monochromator and the emission was monitored by a liquid nitrogen cooled Ge-detector (EO-817L, North Coast Scientific Co, OH, USA). Rose Bengal (R ... || These findings are also consistent with the Φf value of Pyro reported by other authors (Φf = 0.3 and in methanol). […] This property can serve in the ...
# [3] = tends to aggregate easily; ref [3],[4],[14],[86]; cited from earlier work
SMILES,molar extinction coefficient (ε) [1] [L/mol/cm],Φf (fluorescence quantum yield) [2],solubility in biological media [3]
C=Cc1c(C)c2cc3nc(c4c5[nH]c(cc6nc(cc1[nH]2)C(C)=C6CC)c(C)c5C(=O)C4)[C@@H](CCC(=O)NCCCC[C@H](NC(=O)CCCCCN1C(=O)C=CC1=O)C(=O)N[C@@H](CC(=O)O)C(=O)N[C@@H](CCCCN)C(=O)N1CCC[C@H]1C(=O)N1CCC[C@H]1C(=O)N[C@@H](CCCNC(=N)N)C(=O)O)[C@@H]3C [MI-K(Pyro)DKPPR-OH] ({Hexanoyl(6-maleimido)}-K(Pyropheophorbide(a))DKPPR-OH),64012,,
"C=Cc1c(C)c2cc3nc(c4c5[nH]c(cc6nc(cc1[nH]2)C(C)=C6CC)c(C)c5C(=O)C4)[C@@H](CCC(=O)O)[C@@H]3C [Pyro, pyropheophorbide-a, reference compound]",,0.3,poorly soluble in biological media
